Assay results from patent publication US20050090529A1, “3,5 Disubstituted indazole compounds with nitrogen-bearing 5-membered heterocycles, pharmaceutical compositions, and methods for mediating or inhibiting cell proliferation” (PFIZER INC, priority 2003, published 2005).

What follows are molecules tested on Cyclin-dependent kinase (assay: Cyclin-dependent kinase inhibition, % inhibition at 10 nM (library Examples 99-270)). Conditions: 10 nM compound.
Type: biochemical
Method: Cyclin-dependent kinase activity was measured by quantifying the enzyme-catalyzed, time-dependent incorporation of radioactive phosphate from [^32P]ATP or [^33P]ATP into a protein substrate. Unless noted otherwise, assays were performed in 96-well plates in a total volume of 50 μL, in the presence of 10 mM HEPES (N-[2-hydroxyethyl]piperazine-N′-[2-ethanesulfonic acid]) (pH 7.4), 10 mM MgCl2, 25 μM adenosine triphosphate (ATP), 1 mg/mL ovalbumin, 5 μg/mL leupeptin, 1 mM dithiothreitol, 10 mM beta-glycerophosphate, 0.1 mM sodium vanadate, 1 mM sodium fluoride, 2.5 mM ethylene glycol-bis(β-aminoethyl ethKer)-N,N,N′N′-tetraacetic acid (EGTA), 2% (v/v) dimethylsulfoxide, and 0.03-0.4 μCi [^32/33P]ATP per reaction. Reactions were initiated with enzyme, incubated at 30° C., and terminated after 20 minutes by the addition of ethylenediaminetetraacetic acid (EDTA) to 250 mM. The phosphorylated substrate was then captured on a nitrocellulose or phosphocellulose membrane using a 96-well filtration manifold, and unincorporated radioactivity was removed by repeated washing with 0.85% phosphoric acid. Radioactivity was quantified by exposing the dried membranes to a phosphorimager.
Results of assays performed on compounds, which include the specific examples described above are provided in Examples 99-274 above, and in Table 1 below. Unless indicated otherwise in a particular entry, the units and assays used are as indicated in the applicable column of the table.

| Compound | % Inhib @ 10 nM |
| --- | --- |
| CCNCc1cncc(-c2ccc3[nH]nc(-c4ncc(C(=O)NCc5ccc6[nH]c(C)cc6c5)[nH]4)c3c2)c1C [Example 238, 2-(5-{5-[(ethylamino)methy]-4-methylpyridin-3-yl}-1H-indazol-3-yl)-N-[(2-methyl-1H-indol-5-yl)methyl]-1H-imidazole-5-carboxamide] | 75% |
| CCNCc1cncc(-c2ccc3[nH]nc(-c4ncc(C(=O)NCC56CCCN5CCC6)[nH]4)c3c2)c1C [Example 219, 2-(5-{5-[(ethylamino)methyl]-4-methylpyridin-3-yl}-1H-indazol-3-yl)-N-(tetrahydro-1H-pyrrolizin-7a(5H)-ylmethyl)-1H-imidazole-5-carboxamide] | 20% |
| CCNCc1cncc(-c2ccc3[nH]nc(-c4ncc(C(=O)N5CCCC5)[nH]4)c3c2)c1C [Example 138, ethyl[(4-methyl-5-{3-[5-(pyrrolidin-1-ylcarbonyl)-1H-imidazol-2-yl]-1H-indazol-5-yl}pyridin-3-yl)methyl]amine] | 79% |
| CCNCc1cncc(-c2ccc3[nH]nc(-c4ncc(C(=O)NCc5ccc(CN(C)C)cc5)[nH]4)c3c2)c1C [Example 159, N-{4[(dimethylamino)methyl]benzyl}-2-(5-{5-[(ethylamino)methyl]-4-methylpyridin-3-yl}-1H-indazol-3-yl)-1H-imidazole-5-carboxamide] | 28% |
| CCNCc1cncc(-c2ccc3[nH]nc(-c4ncc(C(=O)NC5CCOCC5)[nH]4)c3c2)c1C [Example 211, 2-(5-{5-[(ethylamino)methyl]-4-methylpyridin-3-yl}-1H-indazol-3-yl)-N-(tetrahydro-2H-pyran-4-yl)-1H-imidazole-5-carboxamide] | 57% |
| CCNCc1cncc(-c2ccc3[nH]nc(-c4ncc(C(=O)N5CCC(NC(C)=O)C5)[nH]4)c3c2)c1C (stereo not drawn) [Example 129] | 55% |
| CCNCc1cncc(-c2ccc3[nH]nc(-c4ncc(C(=O)N(C)CCCN(C)C)[nH]4)c3c2)c1C [Example 122] | 30% |
| CCNCc1cncc(-c2ccc3[nH]nc(-c4ncc(C(=O)NCC(F)(F)F)[nH]4)c3c2)c1C [Example 136, 2-(5-{5-[(ethylamino)methyl]-4-methylpyridin-3-yl}-1H-indazol-3-yl)-N-(2,2,2-trifluoroethyl)-1H-imidazole-5-carboxamide] | 72% |
| CCNCc1cncc(-c2ccc3[nH]nc(-c4ncc(C(=O)N(C)CCc5ccc(OC)c(OC)c5)[nH]4)c3c2)c1C [Example 165, N-[2-(3,4-dimethoxyphenyl)ethyl]-2-(5-{5-[(ethylamino)methyl]-4-methylpyridin-3-yl}-1H-indazol-3-yl)-N-methyl-1H-imidazole-5-carboxamide] | 37% |
| CCNCc1cncc(-c2ccc3[nH]nc(-c4ncc(C(=O)N5CCN(c6ccccn6)CC5)[nH]4)c3c2)c1C [Example 115, ethyl{[4-methyl-5-(3-{5-[(4-pyridin-2-piperazin-1-yl)carbonyl]-1H-imidazol-yl}-1H-indazol-5-yl)pyridin-3-yl]methyl}amine] | 72% |
| CCNCc1cncc(-c2ccc3[nH]nc(-c4ncc(C(=O)NCCOCCO)[nH]4)c3c2)c1C [Example 104] | 54% |
| CCNCc1cncc(-c2ccc3[nH]nc(-c4ncc(C(=O)N5CCC6(CC5)CC(N5CCCC5)CO6)[nH]4)c3c2)c1C (stereo not drawn) [Example 254, ethyl{[4-methyl-5-(3-{5-[(3-pyrrolidin-1-yl-1-oxa-8-azaspiro[4.5]dec-8-yl)carbonyl]-1H-imidazol-2-yl}-1H-indazol-5-yl)pyridin-3-yl]methyl}amine] | 11% |
| CCNCc1cncc(-c2ccc3[nH]nc(-c4ncc(C(=O)N5CCc6c(C(=O)NC)csc6C5)[nH]4)c3c2)c1C [Example 259, 6-{[2-(5-{5-[(ethylamino)methyl]-4-methylpyridin-3-yl}-1H-indazol-3-yl)-1H-imidazol-5-yl]carbonyl}-N-methyl-4,5,6,7-tetrahydrothieno[2,3-c]pyridine-3-carboxamlde] | 69% |
| CCNCc1cncc(-c2ccc3[nH]nc(-c4ncc(C(=O)N5C[C@@H]6C[C@H]5CO6)[nH]4)c3c2)c1C [Example 186, ethyl{[4-methyl-5-(3-{5-[(1S,4S)-2-oxa-5-azabicyclo[2.2.1]hept-5-ylcarbonyl]-1H-imidazol-2-yl)-1H-indazol-5-yl)pyridin-3-yl]methyl}amine] | 61% |
| CCNCc1cncc(-c2ccc3[nH]nc(-c4ncc(C(=O)NCCc5ncn[nH]5)[nH]4)c3c2)c1C [Example 198, 2-(5-{5-[(ethylamino)methyl]-4-methylpyridin-3-yl}-1H-indazol-3-yl)-N-[2-(1H-1,2,4-triazol-5-yl)ethyl]-1H-imidazole-5-carboxamide] | 55% |
| CCNCc1cncc(-c2ccc3[nH]nc(-c4ncc(C(=O)N5CCCC(O)(CN6CCCC6=O)CC5)[nH]4)c3c2)c1C (stereo not drawn) [Example 267, 1-[(1-{[2-(5-{5-[(ethylamino)methyl]-4-methylpyridin-3-yl}-1H-indazol-3-yl)-1H-imidazol-5-yl]carbonyl}-4-hydroxyazepan-4-yl)methyl]pyrrolidin-2-one] | 21% |
| CCNCc1cncc(-c2ccc3[nH]nc(-c4ncc(C(=O)N(C)CC)[nH]4)c3c2)c1C [Example 178, N-ethyl-2-(5-{5-[(ethylamino)methyl]-4-methylpyridin-3-yl}-1H-indazol-3-yl)-N-methyl-1H-imidazole-5-carboxamrde] | 73% |
| CCNCc1cncc(-c2ccc3[nH]nc(-c4ncc(C(=O)NCCc5nnc(-c6cnccn6)o5)[nH]4)c3c2)c1C [Example 264] | 29% |
| CCNCc1cncc(-c2ccc3[nH]nc(-c4ncc(C(=O)N5CCN(c6c(C)cccc6C)CC5)[nH]4)c3c2)c1C [Example 133] | 67% |
| CCNCc1cncc(-c2ccc3[nH]nc(-c4ncc(C(=O)N5CCN(CCOC)CC5)[nH]4)c3c2)c1C [Example 169, ethyl({5-[3-(5-{[4-(2-methoxyethyl)piperazin-1-yl]carbonyl}-1H-imidazol-2-yl)-1H-indazol-5-yl]-4-methylpyridin-3-yl}methyl)amine] | 37% |
| CCNCc1cncc(-c2ccc3[nH]nc(-c4ncc(C(=O)N5C[C@H](C(=O)OC)[C@@H](c6cccnc6)C5)[nH]4)c3c2)c1C [Example 220, methyl(3R,4S)-1-{[2-(5-{5-[(ethylamino)methyl]-4-methylpyridin-3-yl}-1H-indazol-3-yl)-1H-imidazol-5-yl]carbonyl}-4-pyridin-3-ylpyrrolidine-3-carboxylate] | 46% |
| CCNCc1cncc(-c2ccc3[nH]nc(-c4ncc(C(=O)N[C@H](C(=O)NC)[C@@H](C)O)[nH]4)c3c2)c1C [Example 176, 2-(5-{5-[(ethylamino)methyl]-4-methylpyridin-3-yl}-1H-indazol-3-yl)-N-{(1S,2R)-2-hydroxy-1-[(methylamino)carbonyl]propyl}-1H-imidazole-5-carboxamide] | 59% |
| C=C(C)CN(CC)C(=O)c1cnc(-c2n[nH]c3ccc(-c4cncc(CNCC)c4C)cc23)[nH]1 [Example 207] | 69% |
| CCNCc1cncc(-c2ccc3[nH]nc(-c4ncc(C(=O)NCCc5nnc(CC(C)C)o5)[nH]4)c3c2)c1C [Example 270, 2-(5-{5-[(ethylamino)methyl]-4-methylpyridin-3-yl}-1H-indazol-3-yl)-N-[2-(5-isobutyl-1,3,4-oxadiazol-2-yl)ethyl]-1H-imidazole-5-carboxamide] | 27% |
